Experimental data published in patent publication EP3928779A1 (Chugai Seiyaku Kabushiki Kaisha, priority 2014, dated 2016).

System: rat small-intestinal brush border membrane vesicles
Assay: Inhibitory effect on 33PO4 uptake into rat small-intestinal brush border membrane vesicles (rapid filtration method)
Assay type: biochemical
Conditions: 33PO4 uptake into rat small-intestinal BBMVs; test compound 1 µM; reacted for 60 seconds
Outline: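 Uptake of ^33PO4 was measured by rapid filtration and liquid scintillation counting of filter-retained vesicles, after quenching with ice-cold 110 mM NaCl/1 mM KH2PO4/10 mM HEPES pH 7.5. Vesicles were brush border membranes from the upper small intestine of female Wistar rats aged 4–5 weeks.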

With `CN1N(Cc2ccc(OCCOCCOCCOCCC(=O)NCC(O)CO)c(F)c2F)C(=O)C(C(=O)Nc2ccc(C(F)(F)F)cc2-c2cc(C(F)(F)F)ncn2)=C(O)C12CCCC2` (centres unmarked) [Example 424] as the compound, how does the “Rate of uptake inhibition (%) (1 µM)” value read?
The value was 17%.

How did the “Rate of uptake inhibition (%) (1 µM)” value turn out when `CN(CCOCCC(=O)N(C)C[C@H](O)[C@@H](O)[C@H](O)[C@H](O)CO)CCOc1ccc(CN2C(=O)C(C(=O)Nc3ccc(C(F)(F)F)cc3-c3cc(C(F)(F)F)ncn3)=C(O)C3(CCCC3)N2C)c(F)c1F` [Example 425] was run?
The value was 5%.

How did the “Rate of uptake inhibition (%) (1 µM)” value turn out when `CN(CCOCCC(=O)NCC(O)CO)CCOc1ccc(CN2C(=O)C(C(=O)Nc3ccc(C(F)(F)F)cc3-c3cc(C(F)(F)F)ncn3)=C(O)C3(CCCC3)N2C)c(F)c1F` (centres unmarked) [Example 426] was run?
Its value is 24%.

`CN1N(Cc2ccc(OCCOCCNC(=O)[C@@H](O)[C@H](O)[C@@H](O)[C@@H](O)CO)c(F)c2F)C(=O)C(C(=O)Nc2ccc(C(F)(F)F)cc2-c2cc(C(F)(F)F)ncn2)=C(O)C12CCCC2` [Example 427, 7-[[2,3-Difluoro-4-[2-[2-[[(2S,3R,4S,5S)-2,3,4,5,6-pentahydroxyhexanoyl]amino]ethoxy]ethoxy]phenyl]methyl]-10-hydroxy-6-methyl-8-oxoN-[4-(trifluoromethyl)-2-[6-(trifluoromethyl)pyrimidin-4-yl]phenyl]-6,7-diazaspiro[4.5]dec-9-ene-9-carboxamide] was tested. Which “Rate of uptake inhibition (%) (1 µM)” value did it give?
Its value is 12%.

How did the “Rate of uptake inhibition (%) (1 µM)” value turn out when `CN1N(Cc2ccc(OCCOCCOCCOCCNC(=O)[C@@H](O)[C@H](O)[C@@H](O)[C@@H](O)CO)c(F)c2F)C(=O)C(C(=O)Nc2ccc(C(F)(F)F)cc2-c2cc(C(F)(F)F)ncn2)=C(O)C12CCCC2` [Example 428, 7-[[2,3-Difluoro-4-[2-[2-[2-[2-[[(2S,3R,4S,5S)-2,3,4,5,6-pentahydroxyhexanoyl]amino]ethoxy]ethoxy]ethoxy]ethoxy]phenyl]methyl]-10-hydroxy-6-methyl-8-oxo-N-[4-(trifluoromethyl)-2-[6-(trifluoromethyl)pyrimidin-4-yl]phenyl]-6,7-diazaspiro[4. 5]dec-9-ene-9-carboxamide] was run?
Its value is 14%.

How did the “Rate of uptake inhibition (%) (1 µM)” value turn out when `COCCN(C)CCOCCOc1ccc(CN2C(=O)C(C(=O)Nc3ccc(C(F)(F)F)cc3-c3cc(C(F)(F)F)ncn3)=C(O)C3(CCCC3)N2C)c(F)c1F` [Example 429, 7-[[2,3-Difluoro-4-[2-[2-[2-methoxyethyl(methyl)amino]ethoxy]ethoxy]phenyl]methyl]-10-hydroxy-6-methyl-8-oxo-N-[4-(trifluoromethyl)-2-[6-(trifluoromethyl)pyrimidin-4-yl]phenyl]-6,7-diazaspiro[4.5]dec-9-ene-9-carboxamide] was run?
Its value is 41%.

With `COCCN(C)CCOCCOCCOc1ccc(CN2C(=O)C(C(=O)Nc3ccc(C(F)(F)F)cc3-c3cc(C(F)(F)F)ncn3)=C(O)C3(CCCC3)N2C)c(F)c1F` [Example 430] as the compound, how does the “Rate of uptake inhibition (%) (1 µM)” value read?
Its value is 29%.

With `COCCN(C)CCOCCOCCOCCOc1ccc(CN2C(=O)C(C(=O)Nc3ccc(C(F)(F)F)cc3-c3cc(C(F)(F)F)ncn3)=C(O)C3(CCCC3)N2C)c(F)c1F` [Example 431] as the compound, how does the “Rate of uptake inhibition (%) (1 µM)” value read?
Its value is 26%.

`COCCN(C)CCOCCOCCOCCOCCOc1ccc(CN2C(=O)C(C(=O)Nc3ccc(C(F)(F)F)cc3-c3cc(C(F)(F)F)ncn3)=C(O)C3(CCCC3)N2C)c(F)c1F` [Example 432] was tested. Which “Rate of uptake inhibition (%) (1 µM)” value did it give?
The value was 11%.

`CN1N(Cc2ccc(OCCNCCS(=O)(=O)O)c(F)c2F)C(=O)C(C(=O)Nc2ccc(C(F)(F)F)cc2-c2cc(C(F)(F)F)ncn2)=C(O)C12CCCC2` [Example 435, 2-[2-[2,3-Difluoro-4-[[10-hydroxy-6-methyl-8-oxo-9-[[4-(trifluoromethyl)-2-[6-(trifluoromethyl)pyrimidin-4-yl]phenyl]carbamoyl]-6,7-diazaspiro[4.5]dec-9-en-7-yl]methyl]phenoxy]ethylamino]ethanesulfonic acid] was tested. Which “Rate of uptake inhibition (%) (1 µM)” value did it give?
Its value is 11%.

With `COCCN(C)CCOc1c(I)cc(CN2C(=O)C(C(=O)Nc3ccc(C(F)(F)F)cc3-c3cc(C(F)(F)F)ncn3)=C(O)C3(CCCC3)N2C)c(F)c1F` [Example 437, 7-[[2,3-Difluoro-5-iodo-4-[2-[2-methoxyethyl(methyl)amino]ethoxy]phenyl]methyl]-10-hydroxy-6-methyl-8-oxo-N-[4-(trifluoromethyl)-2-[6-(trifluoromethyl)pyrimidin-4-yl]phenyl]-6,7-diazaspiro[4.5]dec-9-ene-9-carboxamide] as the compound, how does the “Rate of uptake inhibition (%) (1 µM)” value read?
The value was 45%.

Which “Rate of uptake inhibition (%) (1 µM)” value does the source give for `COCCCN(C)C(=O)c1cc(CN2C(=O)C(C(=O)Nc3ccc(C(F)(F)F)cc3-c3cc(C(F)(F)F)ncn3)=C(O)C3(CCCC3)N2C)c(F)c(F)c1OCCN(C)CCOC` [Example 438, 7-[[2,3-Difluoro-4-[2-[2-methoxyethyl(methyl)amino]ethoxy]-5-[3-methoxypropyl(methyl)carbamoyl]phenyl]methyl]-10-hydroxy-6-methyl-8-oxo-N-[4-(trifluoromethyl)-2-[6-(trifluoromethyl)pyrimidin-4-yl]phenyl]-6,7-diazaspiro[4.5]dec-9-ene-9-carboxamide] here?
Its value is 33%.

How did the “Rate of uptake inhibition (%) (1 µM)” value turn out when `COCCOc1cc(NC(=O)C2=C(O)C3(CCCC3)N(C)N(Cc3ccc(OCCN(C)CCOC)c(F)c3F)C2=O)c(-c2ncnc(C(F)(F)F)c2C)cc1C(F)(F)F` [Example 439, 7-[[2,3-Difluoro-4-[2-[2-methoxyethyl(methyl)amino]ethoxy]phenyl]methyl]-10-hydroxy-N-[5-(2-methoxyethoxy)-2-[5-methyl-6-(trifluoromethyl)pyrimidin-4-yl]-4-(trifluoromethyl)phenyl]-6-methyl-8-oxo-6,7-diazaspiro[4.5]dec-9-ene-9-carboxamide] was run?
Its value is 35%.

`COCCN(C)CCOc1c(-c2cccnc2)cc(CN2C(=O)C(C(=O)Nc3ccc(C(F)(F)F)cc3-c3cc(C(F)(F)F)ncn3)=C(O)C3(CCCC3)N2C)c(F)c1F` [Example 440, 9-[[2,3-Difluoro-4-[2-[2-methoxyethyl(methyl)amino]ethoxy]-5-(3-pyridinyl)phenyl]methyl]-6-hydroxy-10-methyl-8-oxo-N-[4-(trifluoromethyl)-2-[6-(trifluoromethyl)pyrimidin-4-yl]phenyl]-9,10-diazaspiro[4.5]dec-6-ene-7-carboxamide] was tested. Which “Rate of uptake inhibition (%) (1 µM)” value did it give?
The value was 28%.

With `CN(C[C@H](O)[C@@H](O)[C@H](O)[C@H](O)CO)C(=O)COCCOCCOCCOCCOc1ccc(CN2C(=O)C(C(=O)Nc3ccc(C(F)(F)F)cc3-c3cc(C(F)(F)F)ncn3)=C(O)C3(CCCC3)N2C)c(F)c1F` [Example 441, 7-[[2,3-Difluoro-4-[2-[2-[2-[2-[2-[methyl-[(2S,3R,4R,5R)-2,3,4,5,6-pentahydroxyhexyl]amino]-2-oxoethoxy]ethoxy]ethoxy]ethoxy]ethoxy]phenyl]methyl]-10-hydroxy-6-methyl-8-oxo-N-[4-(trifluoromethyl)-2-[6-(trifluoromethyl)pyrimidin-4-yl]phenyl]-6,7-diazaspiro[4.5]dec-9-ene-9-carboxamide] as the compound, how does the “Rate of uptake inhibition (%) (1 µM)” value read?
The value was 22%.

Which “Rate of uptake inhibition (%) (1 µM)” value does the source give for `COCCN(C)CCN(C)c1ccc(CN2C(=O)C(C(=O)Nc3ccc(C(F)(F)F)cc3-c3cc(C(F)(F)F)ncn3)=C(O)C3(CCCC3)N2C)c(F)c1F` [Example 442] here?
Its value is 24%.

Which “Rate of uptake inhibition (%) (1 µM)” value does the source give for `CCN(CCN(C)CCOC)c1ccc(CN2C(=O)C(C(=O)Nc3ccc(C(F)(F)F)cc3-c3cc(C(F)(F)F)ncn3)=C(O)C3(CCCC3)N2C)c(F)c1F` [Example 443] here?
Its value is 28%.

Which “Rate of uptake inhibition (%) (1 µM)” value does the source give for `CCCN(CCN(C)CCOC)c1ccc(CN2C(=O)C(C(=O)Nc3ccc(C(F)(F)F)cc3-c3cc(C(F)(F)F)ncn3)=C(O)C3(CCCC3)N2C)c(F)c1F` [Example 444] here?
The value was 24%.

`COCCN(C)CCN(c1ccc(CN2C(=O)C(C(=O)Nc3ccc(C(F)(F)F)cc3-c3cc(C(F)(F)F)ncn3)=C(O)C3(CCCC3)N2C)c(F)c1F)C(C)C` [Example 445] was tested. Which “Rate of uptake inhibition (%) (1 µM)” value did it give?
The value was 29%.

For `CN1N(Cc2ccc(NCCCN3CCOCC3)c(F)c2F)C(=O)C(C(=O)Nc2ccc(C(F)(F)F)cc2-c2cc(C(F)(F)F)ncn2)=C(O)C12CCCC2` [Example 446], which “Rate of uptake inhibition (%) (1 µM)” value is on record?
Its value is 31%.

Which “Rate of uptake inhibition (%) (1 µM)” value does the source give for `CN1N(Cc2ccc(NCCN3CCOCC3)c(F)c2F)C(=O)C(C(=O)Nc2ccc(C(F)(F)F)cc2-c2cc(C(F)(F)F)ncn2)=C(O)C12CCCC2` [Example 447] here?
Its value is 50%.

How did the “Rate of uptake inhibition (%) (1 µM)” value turn out when “(4aR)-1-[(2,3-Difluorophenyl)methyl]-4-hydroxy-4a-methyl-N-[5-methyl-2-(trifluoromethyl)furan-3-yl]-2-oxo-6,7-dihydro-5H-pyrrolo[1,2-b]pyridazine-3-carboxamide [Example 7]” was run?
Its value is 69%.

For “(4aR)-1-[(2,3-Difluorophenyl)methyl]-4-hydroxy-N-[5-methyl-2-(trifluoromethyl)furan-3-yl]-2-oxo-4a-propyl-6,7-dihydro-5H-pyrrolo[1,2-b]pyridazine-3-carboxamide [Example 12]”, which “Rate of uptake inhibition (%) (1 µM)” value is on record?
Its value is 27%.

“(4aR)-1-[(2,3-Difluorophenyl)methyl]-4a-ethyl-4-hydroxy- N-[5-methyl-2-(trifluoromethyl)furan-3-yl]-2-oxo-6,7-dihydro-5H-pyrrolo[1,2-b]pyridazine-3-carboxamide [Example 10]” was tested. Which “Rate of uptake inhibition (%) (1 µM)” value did it give?
The value was 37%.

With “(4aR)-1-[(3-Fluorophenyl)methyl]-4-hydroxy-4a-methyl-N-[5-methyl-2-(trifluoromethyl)furan-3-yl]-2-oxo-6,7-dihydro-5H-pyrrolo[1,2-b]pyridazine-3-carboxamide [Example 6]” as the compound, how does the “Rate of uptake inhibition (%) (1 µM)” value read?
The value was 48%.

Which “Rate of uptake inhibition (%) (1 µM)” value does the source give for “(4aR)-1-[(3-Fluorophenyl)methyl]-4-hydroxy-N-[5-methyl-2-(trifluoromethyl)furan-3-yl]-2-oxo-4a-propyl-6,7-dihydro-5H-pyrrolo[1,2-b]pyridazine-3-carboxamide [Example 11]” here?
Its value is 22%.
